Measured values: patent US20050014149A1, “Assay for inhibitors of translocases” (priority 2001, published 2005)

Molecular target: SV40 large T antigen (Simian virus 40, UniProt P03070)
Experiment: Homogeneous helicase assay (streptavidin displacement from biotin-labelled oligonucleotide, biotin-4-fluorescein quenching)
Type: biochemical
Conditions: inhibitor added to the helicase assay; fluorescence ex 485 nm / em 535 nm; FIG. 4
From the text: The helicase substrate takes the form of an oligonucleotide of length appropriate to the helicase under test that is biotinylated at one end, appropriate to the directionality of the helicase under test. In this example, a single-strand 60-mer with the sequence […] TGCATGATG was labelled with biotin at the 5′-terminus (obtained from Eurogentec, Belgium) so that it could be used as a substrate for the helicase function of the SV40 large T antigen which is a 3′-5′ helicase.
Equal volumes of streptavidin and biotin-labelled oligonucleotide dissolved in reaction buffer (see below) were mixed in such a way that there was at least a four-fold molar excess of oligonucleotide over streptavidin. This is to ensure the saturation of all biotin-binding sites on the streptavidin molecule (4 biotin-binding sites per molecule streptavidin). This mixture was incubated for at least 15 minutes before being used for the assay.
An aliquot of the oligonucleotide/streptavidin complex (oligo/SA) was then mixed with SV40 large T antigen and biotin-4-fluorescein in a suitable buffer, in this case 50 mM Tris-HCl pH 7.5, containing 3 mM MgCl2, 5 mM dithiothreitol and 100 μg/ml bovine serum albumin and pipetted into 384-well microplates.
The enzyme reaction was started by adding an appropriate amount of adenosine triphosphate and incubating the plate at 37° C. […]

Sequence of SV40 large T antigen (P03070 whole entry): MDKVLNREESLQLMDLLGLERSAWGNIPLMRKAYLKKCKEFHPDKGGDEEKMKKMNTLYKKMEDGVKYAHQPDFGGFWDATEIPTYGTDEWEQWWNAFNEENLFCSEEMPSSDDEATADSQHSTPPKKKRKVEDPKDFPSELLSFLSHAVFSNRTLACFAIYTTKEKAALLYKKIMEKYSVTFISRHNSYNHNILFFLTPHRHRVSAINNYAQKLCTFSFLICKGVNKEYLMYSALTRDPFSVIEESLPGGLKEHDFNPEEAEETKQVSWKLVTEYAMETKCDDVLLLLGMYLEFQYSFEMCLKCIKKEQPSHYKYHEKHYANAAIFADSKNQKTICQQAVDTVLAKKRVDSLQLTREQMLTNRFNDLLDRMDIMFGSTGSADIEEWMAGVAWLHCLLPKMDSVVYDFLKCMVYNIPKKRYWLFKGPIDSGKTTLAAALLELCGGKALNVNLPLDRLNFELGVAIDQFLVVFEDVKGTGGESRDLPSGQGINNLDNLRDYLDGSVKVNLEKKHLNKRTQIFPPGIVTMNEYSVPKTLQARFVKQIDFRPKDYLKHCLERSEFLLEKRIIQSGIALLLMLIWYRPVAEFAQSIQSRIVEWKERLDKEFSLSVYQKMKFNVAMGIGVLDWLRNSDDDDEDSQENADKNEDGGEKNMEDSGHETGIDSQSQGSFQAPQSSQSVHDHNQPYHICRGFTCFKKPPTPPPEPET

## Cn1cc(NC(=O)c2cc(NC(=O)c3cc(NC=O)cn3C)cn2C)cc1C(=O)NCCC(=N)N [Distamycin A]
  helicase activity (displacement of the streptavidin from the biotin-labelled substrate): dose-dependently decrease helicase activity
